Assay results: paper PMC11375437, “Selective labelling of GBA2 in cells with fluorescent β-D-arabinofuranosyl cyclitol aziridines” (Chemical Science, 2024)

Biological target: T1, GBA3 (Homo sapiens, UniProt Q9H227)
T1 construct: expressed in transfected cells; host or cells: HEK293T GBA1/GBA2 KO, GBA3 overexpressed
T1 sequence (Q9H227 1-469): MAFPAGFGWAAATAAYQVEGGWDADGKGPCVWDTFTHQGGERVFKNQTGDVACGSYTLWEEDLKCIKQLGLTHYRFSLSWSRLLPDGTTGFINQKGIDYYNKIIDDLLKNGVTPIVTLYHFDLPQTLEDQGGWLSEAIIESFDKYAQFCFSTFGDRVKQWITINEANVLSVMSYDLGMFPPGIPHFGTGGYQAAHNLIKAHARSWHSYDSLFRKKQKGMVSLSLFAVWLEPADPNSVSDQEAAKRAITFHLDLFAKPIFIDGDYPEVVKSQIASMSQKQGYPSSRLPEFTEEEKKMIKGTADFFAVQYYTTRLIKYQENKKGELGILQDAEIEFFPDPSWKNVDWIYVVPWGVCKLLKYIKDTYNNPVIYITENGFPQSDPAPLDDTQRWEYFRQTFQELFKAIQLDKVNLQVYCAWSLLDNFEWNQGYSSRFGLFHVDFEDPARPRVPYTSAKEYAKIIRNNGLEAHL
Assay: 4MU fluorogenic substrate assay for apparent IC50, GBA3
Assay type: biochemical
Conditions: 30 min pre-incubation, 4MU-β-D-Glc
Text: To identify an ABP that selectively labels human GBA2 over GBA1 and GBA3, a library of cyclophellitol-based ABPs with varying configurations (ESI Fig. S1 ^†) was screened for their selectivity towards human retaining β-glucosidases. For this purpose, we initially assessed the inhibition properties of the compounds using recombinant human GBA1 (rhGBA1, imiglucerase), lysates of cells overexpressing GBA2 or GBA3 (both in combination with knockout of the other retaining β-glucosidases). In a preliminary screen, enzymes were pre-incubated for 30 min with the tested compounds, followed by the addition of the fluorogenic substrate, 4MU-β-D-Glc, and subsequent quantification of released fluorescent 4MU after 30 minutes. This screening brought our attention to a new set of β-D-Araf cyclitol aziridines as potential GBA2 inhibitors. […] On the other hand, the biotin-tagged β-D-Araf compound 6 is a poor inhibitor of all three glucosidases (apparent IC50 > 8 μM). Arabinofuranosyl cyclitol 12–20 with various configurations (α-L-Araf and β-L-Araf) were also evaluated (ESI Fig. S1 ^†).
Recombinant human GBA1 (rhGBA1, Imiglucerase) was kindly provided by Sanofi Genzyme (Cambridge, MA, USA). 4-Methylumbelliferyl-β-D-glucopyranoside substrates were purchase from Glycosynth (Warrington Cheshire, UK). Protein concentration was measured using the Pierce BCA assay kit (Thermo Fisher Scientific, Waltham, MA, USA). Harvested cells (cell pellets), cell lysates and tissue homogenates not used directly were stored at -80 °C.
HEK293T (CRL‐3216™) cells were purchased from ATCC (Manassas, VA, USA). HEK293T cells were cultured in DMEM medium (Sigma‐Aldrich), supplied with 10% (v/v) FCS, 0.1% (w/v) penicillin/streptomycin and 1% (v/v) Glutamax, under 37 °C and 5% or 7% CO2. […]
2.3 Generation of cells genetically modified for β-glucosidase expression For overexpression of the different β-glucosidases, "wildtype" HEK293T cells, HEK293T cells with GBA2 knockout (KO) or HEK293T cells with both GBA1 and GBA2 KO were used, following by the overexpression (OE) of targeted β-glucosidases using the constructs as described in references.1,2 Either GBA2 or GBA3 were overexpressed in GBA1/GBA2 KO HEK293T (generated by the CRISPR/Cas9 method2) to generate GBA1/2 KOs with GBA2 (or GBA3) for overexpression in HEK293T cells as indicated, or using "wildtype" HEK293T cells containing endogenous GBA1 and GBA2 to overexpress both GBA2 and GBA3, these were generated as described in our previous report.1,2 […]
Cells were cultured with the method described above to 80-90% confluency, and were isolated, washed with Dulbecco′s phosphate buffered saline (PBS) and subsequently collected using the following method.3 HEK293T and RPE-1 cells were easily detached from the culture plate by trypsin treatment after which some DMEM medium was added. The cells were collected by pipetting and DMEM medium was removed by centrifuging. The cells were washed with cold PBS three times, after which they were centrifuged to remove PBS and then stored at –80 °C for further use or lysed in potassium phosphate buffer (K2HPO4-KH2PO4, 25 mM, pH 6.5, supplemented with 0.1% (v/v) Triton X-100 and protease inhibitor cocktail (EDTA-free, Roche, Basel, Switzerland)) by sonication with a Polytron PT 1300D sonicator (Kinematica, Luzern, Switzerland). After sonication, lysed mixtures were centrifuged at 10,000 x g for 3 min at 4°C, and the supernatants where desired β-glucosidases exist were used for the experiment.
2.5 4MU fluorogenic substrate assay for apparent IC50 determination
4MU fluorogenic substrate assays (using recombination human rhGBA1 or lysates of HEK293T cells) were conducted in 96-well plates at 37 °C. Samples were diluted with McIlvaine buffer (150 mM citric acid-Na2HPO4) to a final volume of 25 μL, at the appropriate pH for each enzyme. Assays were performed by incubating the samples with 100 μL 4-methylumbelliferyl-β-D-glucopyranoside substrate diluted in McIlvaine buffer for a period of 30 min. […]

[1] = GBA1/GBA2 KO GBA3 OE HEK293T cell lysate, pH 6.0, n = 3 for β-D-Araf, n = 1 for α-L-Araf and β-L-Araf

## [N-]=[N+]=NCCCCCCCCN1[C@@H]2[C@H](CO)[C@@H](O)[C@H](O)[C@@H]21 (stereo partly drawn) [Compound 2, β-D-arabinofuranosyl cyclitol aziridine-azidooctyl]
[1]
  IC50: 8.15 µM

## COc1ccc(C2=[N+]3C(=C(CCCCc4cn(CCCCCCCCN5[C@@H]6[C@H](CO)[C@@H](O)[C@H](O)[C@@H]65)nn4)c4ccc(-c5ccc(OC)cc5)n4[B-]3(F)F)C=C2)cc1 (some centres unmarked) [ABP 4]
[1]
  IC50: > 10 µM

## CC1=CC(C)=[N+]2C1=C(CCCCc1cn(CCCCCCCCN3[C@@H]4[C@H](CO)[C@@H](O)[C@H](O)[C@@H]43)nn1)c1c(C)cc(C)n1[B-]2(F)F (some centres unmarked) [ABP 3]
[1]
  IC50: > 10 µM

## OC[C@@H]1[C@@H](O)[C@H](O)[C@@H]2N[C@H]12 [Compound 1, β-D-Arabinofuranosyl cyclitol aziridine]
  IC50: > 50 µM
[1]
  IC50: > 50 µM

## O=C(CCCC[C@@H]1SC[C@@H]2NC(=O)N[C@@H]21)NCc1cn(CCCCCCCCN2[C@@H]3[C@H](CO)[C@@H](O)[C@H](O)[C@@H]32)nn1 (some centres unmarked) [ABP 6]
  IC50: > 8 µM
[1]
  IC50: 10.3 ± 1.9 µM

## CN1/C(=C/C=C/C=C/C2=[N+](CCCCCC(=O)NCc3cn(CCCCCCCCN4[C@@H]5[C@H](CO)[C@@H](O)[C@H](O)[C@@H]54)nn3)c3ccccc3C2(C)C)C(C)(C)c2ccccc21 (some centres unmarked) [ABP 5]
[1]
  IC50: 1.52 ± 0.159 µM
